The test system of data set [1] is ApoB secretion, HepG2 cells. Kind of data set: Quantification of the secretion of ApoB (HepG2 cells, immunoprecipitation, scintillation counting). The data set is classed as cell-based. As to conditions: 24 hours of incubation; for IC50: Homo sapiens, HepG2, 24 h. The essentials: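 HepG2 cells in MEM Rega 3 with 10% FCS were treated at 70% confluency with compound (DMSO 0.4% final) for 24 h. Medium ApoB was immunoprecipitated with sheep anti-apoB then rabbit anti-sheep antibody (24 h each, 8° C), and pellet radioactivity was counted by liquid scintillation to give IC50.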

In another data set the target is MTP (Homo sapiens, UniProt P55157). The data set can be described thus: MTP assay (triglyceride transfer from donor to acceptor vesicles). The data set is classed as biochemical. The following applies: MTP activity, 37° C. On the procedure: MTP activity was measured using an assay similar to one described by J. R. Wetterau and D. B. Zilversmit in Chemistry and Physics of Lipids (1985) 38, 205-222. In order to prepare the donor and acceptor vesicles, the appropriate lipids in chloroform were put into a glass test tube and dried under a stream of nitrogen. A buffer containing 15 mM Tris-HCl (pH 7.5), 1 mM ethylenediamine tetra-acetic acid, 40 mM NaCl, 0.02% NaN3 (assay buffer) was added to the dried lipid. The mixture was vortexed briefly and the lipids were then allowed to hydrate for 20 minutes on ice. Vesicles were then prepared by bath sonication (using a Branson 2200 device) at room temperature for at most 15 minutes. Butylated hydroxytoluene was included in all vesicle preparations at a concentration of 0.1%. The lipid transfer assay mixture contained donor vesicles (40 nmole phosphatidylcholine, 7.5 mole % cardiolipin and 0.25 mole % glycerol tri[1-^14C]-oleate), acceptor vesicles (240 nmol phosphatidylcholine) and 5 mg bovine serum albumin in a total volume of 675 μl in a 1.5 ml microcentrifuge tube. Test compounds were added dissolved in dimethylsulfoxide (0.13% final concentration). After 5 minutes of pre-incubation at 37° C., the reaction was started by the addition of MTP in 100 μl of a dialysis buffer. The reaction was stopped by the addition of 400 μl […] (DEAE)-52 cellulose (Sephadex) pre-equilibrated in 15 mM Tris-HCl (pH 7.5), 1 mM ethylenediamine tetra-acetic acid and 0.02% NaN3 (1:1 volume/volume). The mixture was agitated for 4 minutes and centrifuged for 2 minutes at maximum speed in an Eppendorf centrifuge (4° C.) to pellet the DEAE-52-bound donor vesicles. An aliquot of the supernatant containing the acceptor liposomes was counted and the [^14C]-counts were used to calculate the percent triglyceride transfer from donor to acceptor vesicles.
Resulting IC50 values are enumerated in Table C.2 for some of the above-referred compounds.

The structures appear in SMILES notation.

Sequence of MTP (P55157 19-894, species assumed): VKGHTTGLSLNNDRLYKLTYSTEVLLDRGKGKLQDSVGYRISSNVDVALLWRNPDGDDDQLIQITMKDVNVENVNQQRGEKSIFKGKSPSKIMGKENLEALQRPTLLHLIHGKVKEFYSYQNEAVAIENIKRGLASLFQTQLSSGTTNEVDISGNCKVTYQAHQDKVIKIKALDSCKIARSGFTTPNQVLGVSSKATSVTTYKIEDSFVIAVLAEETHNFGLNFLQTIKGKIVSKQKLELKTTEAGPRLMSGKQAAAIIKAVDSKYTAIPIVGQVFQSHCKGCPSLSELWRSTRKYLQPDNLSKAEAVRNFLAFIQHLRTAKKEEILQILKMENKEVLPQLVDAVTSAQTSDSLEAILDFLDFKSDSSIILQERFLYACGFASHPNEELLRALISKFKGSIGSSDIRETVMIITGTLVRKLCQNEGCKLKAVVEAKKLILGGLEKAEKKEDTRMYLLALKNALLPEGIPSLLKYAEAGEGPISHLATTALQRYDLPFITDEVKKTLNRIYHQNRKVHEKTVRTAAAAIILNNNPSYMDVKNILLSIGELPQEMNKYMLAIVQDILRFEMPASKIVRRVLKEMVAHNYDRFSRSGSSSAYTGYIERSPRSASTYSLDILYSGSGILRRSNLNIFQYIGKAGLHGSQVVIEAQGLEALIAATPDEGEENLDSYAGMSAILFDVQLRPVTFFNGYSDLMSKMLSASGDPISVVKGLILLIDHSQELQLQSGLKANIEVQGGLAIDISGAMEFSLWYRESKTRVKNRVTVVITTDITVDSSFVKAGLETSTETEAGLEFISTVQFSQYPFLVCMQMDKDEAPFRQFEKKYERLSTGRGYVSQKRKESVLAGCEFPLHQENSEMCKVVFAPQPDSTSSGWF
Sequence of MTP (P07237 18-508 partner, species assumed): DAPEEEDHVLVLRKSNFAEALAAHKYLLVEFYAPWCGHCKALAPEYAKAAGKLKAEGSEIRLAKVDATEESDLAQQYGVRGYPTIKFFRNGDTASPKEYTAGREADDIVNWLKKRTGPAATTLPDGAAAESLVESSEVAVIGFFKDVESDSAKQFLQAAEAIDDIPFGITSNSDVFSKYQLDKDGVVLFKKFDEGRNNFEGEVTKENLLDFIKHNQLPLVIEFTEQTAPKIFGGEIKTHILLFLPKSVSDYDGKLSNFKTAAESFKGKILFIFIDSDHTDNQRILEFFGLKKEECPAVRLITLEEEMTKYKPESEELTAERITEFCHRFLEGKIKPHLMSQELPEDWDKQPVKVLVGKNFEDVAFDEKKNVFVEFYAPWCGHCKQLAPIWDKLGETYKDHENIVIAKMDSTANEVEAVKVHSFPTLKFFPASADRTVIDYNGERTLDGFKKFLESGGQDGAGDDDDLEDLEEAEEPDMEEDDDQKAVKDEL

As to `COC(=O)C(c1ccccc1)N1CCN(c2ccc(NC(=O)c3ccccc3-c3ccccc3)cc2)CC1` (stereo not drawn) [Co. No. 52, methyl 4-[4-[([1,1′-biphenyl]-2-ylcarbonyl)amino]phenyl]-α-phenyl-1-piperazineacetate], the melting point (in general, the temperature, or range, at which the solid turns liquid) was 125 °C. The IC50 – broadly, the concentration at which inhibition is half-maximal – in data set [1] was 294 nM.

In the case of `O=C(Nc1ccc(N2CCC(C(C(=O)NCc3ccccc3)c3ccccc3)CC2)cc1)c1cccc2c1-c1ccccc1C2` (centres unmarked) [Co. No. 2], the melting point was 202 °C. For the same compound, in data set [1], the IC50 was 106 nM.

As for `COC(=O)C(c1ccccc1)C1CCN(c2ccc(NC(=O)c3ccccc3-c3ccc(C(F)(F)F)cc3)cc2)CC1` (stereo not drawn) [Co. No. 39, methyl α-phenyl-1-[4-[[[4′-(trifluoromethyl)-[1,1′-biphenyl]-2-yl]carbonyl]amino]phenyl]-4-piperidineacetate], the melting point was 151 °C. In data set [1] (listed as 39), the negative logarithm of the IC50 (pIC50) (commonly the IC50 on a negative log10 scale, so that one unit is a factor of ten) was found to be 7.791. For the same compound, at MTP, the IC50 was 12 nM.

Compound `COC(=O)C(c1ccccc1)N1CCC(c2ccc(NC(=O)c3ccccc3-c3ccc(C(F)(F)F)cc3)cc2)CC1` (centres unmarked) [Co. No. 41, methylphenyl-4-[4-[[[4′-(trifluoromethyl)[1,1′-biphenyl]-2-yl]carbonyl]amino]phenyl]-1-piperidineacetate] yielded a melting point of 138 °C. In addition, the midpoint of inhibition in data set [1], the IC50, lay at 21.6 nM. This compound also gave an IC50 on MTP of 8.65 nM.

`COC(=O)C(c1ccccc1)N1CCN(c2ccc(NC(=O)c3ccccc3-c3ccsc3)cc2)CC1` (centres unmarked) [Co. No. 267] gave a melting point of 150 °C.

Consider `O=C(Nc1ccc(N2CCC(C(C(=O)NCc3ccccc3)c3ccccc3)CC2)cc1)c1ccccc1CSc1ccccc1` (centres unmarked) [Co. No. 6], for which the half-maximal inhibitory concentration (IC50) in data set [1] was 108 nM; at MTP, 198 nM.

`CCOC(=O)C(CN1CCN(c2ccc(NC(=O)c3ccccc3-c3ccc(C(F)(F)F)cc3)cc2)CC1)c1ccccc1` (centres unmarked) [Co. No. 81, ethylphenyl-4-[4-[[[4′-(trifluoromethyl)[1,1′-biphenyl]-2-yl]carbonyl]amino]-phenyl]-1-piperazine propanoate] came in with a melting point of 195 °C. In data set [1], this compound showed a concentration for half-maximal inhibition (IC50) of 178 nM.

Turning to `O=C(Nc1ccc(N2CCC(C(C(=O)NCc3ccccc3)c3ccccc3)CC2)cc1)c1ccccc1Cc1ccccc1` (centres unmarked) [Co. No. 10], the IC50 was 241 nM in data set [1] and more than 3000 nM against MTP.

In the case of `COC(=O)C(c1ccccc1)N1CCN(c2ccc(NC(=O)c3ccccc3-c3cccnc3)cc2)CC1` (centres unmarked) [Co. No. 270], the melting point is 194 °C.

The compound `O=C(Nc1ccc(N2CCN(C(C(=O)NCC(F)(F)F)c3ccccc3)CC2)cc1)c1ccccc1-c1ccc(C(F)(F)F)cc1` (centres unmarked) [Co. No. 1, N-[4-[4-[2-oxo-1-phenyl-2-[(2,2,2-trifluoroethyl)amino]ethyl]-1-piperazinyl]-phenyl]-4′-(trifluoromethyl)-[1,1′-biphenyl]-2-carboxamide] came in with a melting point of 208 °C. Besides, half-maximal inhibition in data set [1] (IC50) required 7.89 nM. The compound further showed an IC50 on MTP of 13.7 nM.

Consider `O=C(Nc1ccc(N2CCN(C(C(=O)NCc3ccccn3)c3ccccc3)CC2)cc1)c1ccccc1-c1ccc(C(F)(F)F)cc1` (centres unmarked) [Co. No. 60], for which the IC50 is not above 30 nM in data set [1] and 8.28 nM on MTP.

Regarding `CC(C)CNC(=O)C(c1ccccc1)N1CCN(c2ccc(NC(=O)c3ccccc3-c3ccc(C(F)(F)F)cc3)cc2)CC1` (centres unmarked) [Co. No. 58], the values for the IC50 (in data set [1]; on MTP) were not above 30 nM and 15.9 nM, respectively.

Take `CCCNC(=O)C(c1ccccc1)C1CCN(c2ccc(NC(=O)c3ccccc3CSc3ccccc3)cc2)CC1` (centres unmarked) [Co. No. 16]: the IC50 in data set [1] is 83.8 nM; at MTP, 208 nM.

In the case of `C=CCNC(=O)C(c1ccccc1)N1CCN(c2ccc(NC(=O)c3ccccc3-c3ccc(C(F)(F)F)cc3)cc2)CC1` (centres unmarked) [Co. No. 57], the IC50 was 7.57 nM in data set [1] and 6.87 nM against MTP.

For the origin of these results see patent publication US8354402B2, “Polyarylcarboxamides useful as lipid lowering agents” (Janssen Pharmaceutica N.V., priority 2000, dated 2013).
